# Measurements: patent publication US6472369B1, “Anticancer compounds and methods” (The Regents of the University of Michigan, priority 1996, dated 2002)
# What was measured:
# [1] = system: normal human prostate epithelial cells; experiment: SU-ECM invasion assay, normal human prostate epithelial cells; format: cell-based; details: 10% FCS, 100 ng per ml PHSRN, FIG. 6B
# Method: Adult Strongylocentrotus purpuratus sea urchins were obtained from Pacific BioMarine, and their embryos were cultured to the early pluteus stage in artificial sea water at 15° C. SU-ECM were prepared from them by treatment with nonionic detergent and strerilized by dilution in the appropriate media. […]
# Invasion assays were coded and scored blindly by microscopic examination under phase contrast at 200- and 400-fold magnification. Each cell contacting an SU-ECM was scored for its position relative to the exterior or interior surfaces. […] The minimum viability of the cells in each assay was always ascertained at the time of assay by determining the fraction of spread, adherent cells on the bottom of each well scored.
# An invasion frequency is defined as the fraction of cells in contact with basement membranes which were located in their interiors at the time of assay. […] Invasion frequencies were determined multiple times for each cell type assayed. For each type of cell assayed the mean and standard deviation of the invasion frequencies were calculated. […]
# [2] = system: rat metastatic prostate carcinoma MatLyLu (MLL) cells; experiment: SU-ECM invasion assay, rat MatLyLu prostate carcinoma cells; format: cell-based; details: for inhibition of PHSRN-induced invasion of SU-ECM: serum free media, 100 ng per ml PHSRN, FIG. 7B
# Method: Adult Strongylocentrotus purpuratus sea urchins were obtained from Pacific BioMarine, and their embryos were cultured to the early pluteus stage in artificial sea water at 15° C. SU-ECM were prepared from them by treatment with nonionic detergent and strerilized by dilution in the appropriate media.
# Cells were harvested by rinsing in Hanks' balanced salt solution, followed by brief treatment with 0.25% trypsin, 0.02% EDTA, and pelleting and resuspension in the appropriate medium with or without 5% FCS at a density of about 50,000 cells per ml. When appropriate, purified bovine plasma fibronectin (Sigma), purified 120 kDa chymotryptic fragment (Gibco BRL), PHSRN (SEQ ID NO:1) or PHSCN (SEQ ID NO:86) peptides (synthesized at the Biomedical Research Core Facilities of the University of Michigan), or GRGDSP (SEQ ID NO:83) or GRGESP (SEQ ID NO:84) peptides (Gibco BRL) were added to the resuspended cells prior to placement of the cells on SU-ECM. In each well of a plate used for an invasion assay, SU-ECM were placed in 0.5 ml of the appropriate medium, and 0.5 ml of the resuspended cells dropped on their exterior surfaces. Invasion assays were incubated 1 to 16 hours prior to assay. If some circumstances, invasion assays were fixed in phosphate-buffered saline (PBS) with 2% formaldehyde for 5 minutes at room temperature, then rinsed into PBS.
# Invasion assays were coded and scored blindly by microscopic examination under phase contrast at 200- and 400-fold magnification. Each cell contacting an SU-ECM was scored for its position relative to the exterior or interior surfaces. A cell was judged to have invaded if it was located on an interior surface below the focal plane passing through the upper surface of the SU-ECM, but above the focal plane passing through its lower surface. The minimum viability of the cells in each assay was always ascertained at the time of assay by determining the fraction of spread, adherent cells on the bottom of each well scored.
# An invasion frequency is defined as the fraction of cells in contact with basement membranes which were located in their interiors at the time of assay. Thus, an invasion frequency of 1 denotes invasion by 100% of the cells in contact with basement membranes. Invasion frequencies were determined multiple times for each cell type assayed. For each type of cell assayed the mean and standard deviation of the invasion frequencies were calculated.
# The result of adding a varying concentration of the PHSCN (SEQ ID NO:86) peptide to PHSRN-induced (SEQ ID NO:1) MLL cells in serum free media is shown in FIG. 7B, where 100 ng per ml of PHSRN (SEQ ID NO:1) was used to induce invasion.
# The procedure described in Example 10, was employed using SU-ECM substrates in 10% FCS and PHS(hC)N (SEQ ID NO:85) instead of PHSCN (SEQ ID NO:86). The result of adding varying concentrations of the PHS(hC)N (SEQ ID NO:85) peptide to serum-induced MLL cells indicates this peptide also has an inhibitory affect on cell invasion (see FIG. 8).
# [3] = system: MatLyLu (MLL) tumors; experiment: MLL prostate tumor growth and metastasis in rats, treatment begun after 24 hours (Example 13); format: in vivo, Copenhagen rats
# Method: In the first part of this example, 20 Copenhagen rats were injected with 500,000 MatLyuLu (MLL) cells subcutaneously in the thigh. To more closely approximate a real clinical situation, PHSCN (SEQ ID NO:86) peptide treatment of 10 of these rats was initiated after 24 hours, instead of immediately. The 10 treated rats (MLL/PHSCN (SEQ ID NO:86)) received a total of 5 i.v. injections of 1 mg of the PHSCN (SEQ ID NO:86) peptide through the tail vein over two weeks. Tumor sizes were measured with calipers on day 14, and the tumors in the untreated rats were removed. Since the injected tumors in the MLL/PHSCN (SEQ ID NO:86) rats were still small, they were retained in the rats for another 7 to 9 days following the last PHSCN (SEQ ID NO:86) injection. At this time, their sizes were all greater than 2 cm, and they were also removed.
# In the second part of this example, the MLL/PHSCN (SEQ ID NO:86) rats received 2 more i.v. doses of the PHSCN (SEQ ID NO:86) peptide prior to sacrifice. Ten days after the sizes of the injected primary tumors were determined, all the rats in the two groups (MLL only and MLL/PHSCN (SEQ ID NO:86)) were sacrificed, and the number of lung metastases was determined at 7.5-fold magnification.
# The 20 rats described in parts one and two of this example were also examined for metastatic tissues in […]. All of these metastases were dissected and weighed. FIG. 10C plots the mean masses of intraperitoneal metastases (grams) for the two groups of 10 rats. […] This may be due to the anti-angiogenic effect of the PHSCN (SEQ ID NO:86) peptide, as described in part one of this example. In this manner, the PHSCN (SEQ ID NO:86) peptide maybe an effective anti-metastatic, growth-inhibiting chemotherapeutic agent for use in the treatment of cancer.
substance,measurement,setting,value
Pro-His-Ser-Cys-Asn (PHSCN),inhibition of PHSRN-induced invasion of SU-ECM,[1]; higher concentrations,almost complete inhibition
same,inhibition of PHSRN-induced invasion of SU-ECM,[1]; low concentrations,substantial inhibitory affect
same,inhibition of PHSRN-induced invasion of SU-ECM,[2]; higher concentrations,almost complete inhibition
same,inhibition of PHSRN-induced invasion of SU-ECM,[2]; low concentrations,substantial inhibitory affect
same,inhibition of serum-induced invasion of SU-ECM,"[2]; serum-induced, I microgram per ml peptide, FIG. 7A",complete inhibition of invasion
same,tumor size,[3]; 7 to 9 days following the last PHSCN injection,greater than 2 cm
same,mean numbers of lung metastases,"[3]; compared to untreated rats, 7.5-fold magnification, ten days after tumor sizing, FIG. 10B",significant reduction
same,mean masses of intraperitoneal (lymphatic) metastases,"[3]; compared to untreated rats, FIG. 10C",significant reduction
same,"growth of rat prostate cancer tumors (tumor size, calipers)","[3]; day 14, 5 i.v. injections of 1 mg over two weeks, started after 24 hours, FIG. 10A",substantially slows the growth
